In patent US20240254139A1, “FUSED ISOXAZOLYL COMPOUNDS AS KAT6A INHIBITORS” (Aurigene Oncology Limited, priority 2021, published 2024):

Biological target: T1, human-KAT6A (MYST domain 507-778 aa) (Homo sapiens, UniProt Q92794)
T1 construct: human-KAT6A (MYST domain 507-778 aa)
Assay: KAT6A biochemical assay (TR-FRET)
Details: for IC50: dose-response, sigmoidal curve fit, groups A, B, C; for inhibition at 1 µM: compound at 1 μM, percent inhibition of internal assay controls
Excerpt: A TR-FRET based method was used for assaying compounds of the invention for KAT6A enzyme inhibitory activity. TR-FRET is homogeneous proximity assay where Europium-labelled anti-acetyl lysine antibody binds to the acetylated substrate labelled with biotin which in turn binds to streptavidin labelled APC fluorescence acceptor. Europium can transfer energy to APC in the complex and the interaction of two dye-labelled binding partners is detected by the energy transfer between a donor and an acceptor dye, and the subsequent light emission by the acceptor dye. KAT6A transfer an acetyl group from acetyl CoA to lysine amino acids of histones/target proteins. Typically, 5 μL of human-KAT6A (MYST domain 507-778 aa) in assay buffer (100 mM Tris HCl (pH 7.8), 15 mM NaCl, 1 mM EDTA, 0.01% Tween-20, 0.02% BSA, 1 mM DTT) is added to a 384-well plate containing 5 μL of selected test compound in final 1% DMSO, serially diluted in 1:3 in an 8-10-point titration. The selected compound of the present invention and enzyme are incubated for 30 min at room temperature. Next, 5 μL of substrate mix containing histone H4 peptide and acetyl-CoA in assay buffer is added to the plate. The final concentrations of H4 peptide and acetyl-CoA are 200 nM and 600 nM respectively. Following 30 min reaction at room temperature, 5 μL of detection mix containing Europium labelled anti-acetyl antibody and streptavidin-APC is added to the reaction wells. Plate is further incubated for 45 min at room temperature and is read in TR-FRET mode (Ex: 340 nm; Em: 615 nm and 665 nm) on a plate reader.
Selected compounds of the present invention were screened in the above-mentioned assay procedure and IC50 values were determined by fitting the dose-response data to sigmoidal curve fitting equation using Graph pad prism software V8. […]

T1 sequence (Q92794 507-778): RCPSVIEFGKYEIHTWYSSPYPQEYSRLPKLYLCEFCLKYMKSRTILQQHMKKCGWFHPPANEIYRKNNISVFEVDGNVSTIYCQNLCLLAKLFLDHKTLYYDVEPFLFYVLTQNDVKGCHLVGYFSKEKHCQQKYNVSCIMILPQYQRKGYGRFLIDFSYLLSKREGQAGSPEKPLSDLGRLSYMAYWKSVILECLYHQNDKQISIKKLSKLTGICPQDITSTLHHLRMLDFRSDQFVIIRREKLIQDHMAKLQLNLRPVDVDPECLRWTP

**Q.** With COc1cc(C(C)(C)C)ccc1S(=O)(=O)Nc1noc2nc(-c3ccccc3)cc(OC)c12 [Compound 34, 4-(tert-butyl)-2-methoxy-N-(4-methoxy-6-phenylisoxazolo[5,4-b]pyridin-3-yl)benzenesulfonamide] as the compound, how does the inhibition at 10 µM (compound at 10 μM (stated in the cell), read-out: Percent Inhibition (at 10 μM)) read?
**A.** 100%

**Q.** What about the IC50 of the same compound?
**A.** > 200 nM

**Q.** With COc1cccc(OC)c1S(=O)(=O)Nc1noc2nc(Cn3cccn3)cc(OC)c12 [Compound 35, N-(6-((1H-pyrazol-1-yl)methyl)-4-methoxyisoxazolo[5,4-b]pyridin-3-yl)-2,6-dimethoxybenzenesulfonamide] as the compound, how does the IC50 read?
**A.** > 200 nM

**Q.** For COc1cccc(OC)c1S(=O)(=O)N(C)c1noc2nc(-c3ccccc3)cc(OC)c12 [Compound 36, 2,6-dimethoxy-N-(4-methoxy-6-phenylisoxazolo[5,4-b]pyridin-3-yl)-N-methylbenzenesulfonamide], which inhibition at 1 µM is on record?
**A.** 0%

**Q.** Which inhibition at 1 µM does the source give for CNc1cc(OC)c2c(NS(=O)(=O)c3c(OC)cccc3OC)noc2n1 [Compound 37, 2,6-dimethoxy-N-(4-methoxy-6-(methylamino)isoxazolo[5,4-b]pyridin-3-yl)benzenesulfonamide] here?
**A.** 34%

**Q.** How did the inhibition at 1 µM turn out when CCNc1cc(OC)c2c(NS(=O)(=O)c3c(OC)cccc3OC)noc2n1 [Compound 38, N-(6-(ethylamino)-4-methoxyisoxazolo[5,4-b]pyridin-3-yl)-2,6-dimethoxybenzenesulfonamide] was run?
**A.** 95%
